In paper PMC4113265 (Journal of Natural Products, 2014):

Assays:
[1] = test system: MIA PaCa-2 cells; assay: MTT antiproliferation/cytotoxicity assay; assay type: cell-based, human; settings: MIA PaCa-2, MTT, concentration-response curves (Figure 2A)
[2] = freshly prepared rat serum; cited from earlier work
[3] = cited from earlier work

## trapoxin A
[1]
  potency relative to 1 in MIA PaCa-2 cells: comparable potency to 1

## chlamydocin
[2]
  half-life (t1/2) in serum: 8.7 min
[3]
  half-life (t1/2) in whole blood: 0.68 to 3.6 min

## apicidin
[1]
  potency relative to 1 in MIA PaCa-2 cells: significantly less active than 1
